Converted amounts (≈) assume the structure as drawn. “And” between values parts separate entries of the source, which are not always exact repeats. Equal values may be shown once. Read-outs that look alike come from different tables or passages of the source.
Columns and labels:
C. difficile = test: microbe, parasite or virus in culture; type: cell-based, Clostridium difficile
Experimental: MIC testing for C. difficile was performed by Eurofins Panlabs Taiwan LTD based on modifications from the CLSI M11-A8 broth dilution method for Bacteroides fragilis susceptibility testing. Briefly, Reinforced Clostridial Medium (RCM) was pre-reduced by over-night incubation in an anaerobic chamber (80% N2, 10% CO2, and 10% H2) prior to use. MU1140 and variants were dissolved in 100% DMSO, diluted by 2-fold serial dilution in 100% DMSO, for a total of 11 concentrations. A 4 μL aliquot of each dilution was added to 96 μL RCM in wells of a 96 well plate using a Biomek FX instrument (Beckman Coulter, USA), followed by the addition of C. difficile suspension, in RCM, 100 μL/well. The final bacterial count was 2 x 10^5 to 1 x 10^6 colony forming units/mL, in 200 μL per assay well. […] Assay plates were incubated at 35°C for 46 to 48 hr in the anaerobic chamber (A35 Anaerobic Workstation, Don Whitley, UK). Following incubation, test plates were visually examined and each well was scored for growth then the MIC was recorded as the lowest concentration that results in complete inhibition of growth. Each test substance was evaluated in duplicate. Vehicle-control and vancomycin were used as blank and positive controls, respectively. The MIC values of the vancomycin controls were consistent with the historical data against test strains (data not shown).

[1] = 1.0 mg/mL in water
Experimental: Five aliquots of each compound were prepared by dissolving them to 1.0 mg/mL in HPLC grade water (Fisher Scientific, USA). A total of 2 aliquots of the solution were placed in a 37°C stability chamber, and 2 aliquots were placed in a 50°C chamber. Samples were collected on days 0, 2 and 7, centrifuged at 12,000 x g for 5 min, and the supernatants were transferred to a fresh tube. Each sample was diluted 1:4 with 0.05% trifluoroacetic acid (TFA) and the purity and quantity were analyzed by HPLC as described above.

[2] = Solubility 5% D-mannitol, 5% D-mannitol in water, visual assessment
Experimental: To that end, approximately 10 mg of each compound was weighed on a high-precision balance and dispensed into a 1.5 mL microfuge tube.
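Throughout, for Forced degradation Δ Conc: purity and concentration determined by HPLC on aqueous solutions kept in a stability chamber, with samples analyzed at day 0 and after incubation.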
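Throughout, for Forced degradation Δ Purity: purity and concentration determined by HPLC on aqueous solutions kept in a stability chamber, with samples analyzed at day 0 and after incubation.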

Structure (SMILES)	MIC 50 (C. difficile) [µg/mL]	MIC 90 (C. difficile) [µg/mL]	MIC Mode (C. difficile) [µg/mL]	MIC Range (C. difficile) [µg/mL]	Minimum Inhibitory Concentration C. difficile 103-1 (C. difficile) [µg/mL]	Minimum Inhibitory Concentration C. difficile 107-1 (C. difficile) [µg/mL]	Minimum Inhibitory Concentration C. difficile ATCC 9689 (C. difficile) [µg/mL]	Minimum Inhibitory Concentration C. difficile ATCC 43597 (C. difficile) [µg/mL]	Minimum Inhibitory Concentration C. difficile ATCC BAA-1805 (C. difficile) [µg/mL]	Minimum Inhibitory Concentration C. difficile ATCC BAA-1808 (C. difficile) [µg/mL]	Minimum Inhibitory Concentration C. difficile ATCC BAA-1874 (C. difficile) [µg/mL]	Minimum Inhibitory Concentration C. difficile ATCC BAA-1875 (C. difficile) [µg/mL]	Forced degradation Δ Conc ([1]; 2 Days at 37°C)	Forced degradation Δ Purity ([1]; 2 Days at 37°C) [%]	Forced degradation Δ Conc ([1]; 2 Days at +50°C)	Forced degradation Δ Purity ([1]; 2 Days at +50°C) [%]	Forced degradation Δ Conc ([1]; 7 Days at 37°C)	Forced degradation Δ Purity ([1]; 7 Days at 37°C) [%]	Forced degradation Δ Conc ([1]; 7 Days at +50°C)	Forced degradation Δ Purity ([1]; 7 Days at +50°C) [%]	other results
C=C1NC(=O)[C@H](Cc2c[nH]c3ccccc23)NC(=O)[C@H](NC(=O)[C@H](CCCCN)NC(=O)[C@@H](N)CC(C)C)CSC[C@@H](C(=O)N[C@H]2C(=O)N3CCC[C@H]3C(=O)NCC(=O)N[C@H](C(=O)N[C@@H](C)C(=O)N[C@@H](C)C(=O)N/C(=C\C)C(=O)NCC(=O)N[C@@H]3CSC[C@@H]4NC(=O)[C@H](Cc5ccc(O)cc5)NC(=O)[C@@H](CS/C=C\NC4=O)NC(=O)[C@H](CC(N)=O)NC(=O)[C@H](Cc4ccccc4)NC3=O)CS[C@H]2C)NC(=O)[C@H](CC(C)C)NC1=O [OG713]	0.5 (≈ 0.233 µM)	0.5 (≈ 0.233 µM)	0.5 (≈ 0.233 µM)	0.25 to 0.5	0.25	0.5	0.5	0.5	0.25	0.5	0.5	0.5	-11.9% and -12%	-0.06	-16.9% and -17%	-1.51	-8.8% and -9%	-0.56	-41%	-6.98	–
C=C1NC(=O)[C@H](Cc2c[nH]c3ccccc23)NC(=O)[C@H](NC(=O)[C@H](CCCCN)NC(=O)[C@@H](N)[C@@H](C)CC)CSC[C@@H](C(=O)N[C@H]2C(=O)N3CCC[C@H]3C(=O)NCC(=O)N[C@H](C(=O)N[C@@H](C)C(=O)N[C@@H](CC(N)=O)C(=O)N/C(=C\C)C(=O)NCC(=O)N[C@@H]3CSC[C@@H]4NC(=O)[C@H](Cc5ccccc5)NC(=O)[C@@H](CS/C=C\NC4=O)NC(=O)[C@H](CC(N)=O)NC(=O)[C@H](Cc4ccccc4)NC3=O)CS[C@H]2C)NC(=O)[C@H](CC(C)C)NC1=O [OG718]	0.5 (≈ 0.23 µM)	1 (≈ 0.46 µM)	0.5 (≈ 0.23 µM)	0.25 to 1	0.25	0.5	0.5	0.5	0.5	0.25	0.5	1	-9.1% and -9%	-2.07	-29.4% and -29%	-4.90	-21%	-7.42	-43.8% and -44%	-12.84	solubility [2]: > 24 mg/mL
C=C1NC(=O)[C@H](Cc2c[nH]c3ccccc23)NC(=O)[C@H](NC(=O)[C@H](CCCCN)NC(=O)[C@@H](N)CC(C)C)CSC[C@@H](C(=O)N[C@H]2C(=O)N3CCC[C@H]3C(=O)NCC(=O)N[C@H](C(=O)N[C@@H](C)C(=O)N[C@@H](CC(=O)O)C(=O)N/C(=C\C)C(=O)NCC(=O)N[C@@H]3CSC[C@@H]4NC(=O)[C@H](Cc5ccc(O)cc5)NC(=O)[C@@H](CS/C=C\NC4=O)NC(=O)[C@H](CC(N)=O)NC(=O)[C@H](Cc4ccccc4)NC3=O)CS[C@H]2C)NC(=O)[C@H](CC(C)C)NC1=O [OG705]	1 (≈ 0.457 µM)	2 (≈ 0.913 µM)	1 (≈ 0.457 µM)	0.5 to 2	0.5	2	1	1	1	1	1	1	-11.4% and -11%	-0.29	-11%	-1.32	-12.3% and -12%	-0.61	-26%	-3.22	–
C=C1NC(=O)[C@H](Cc2c[nH]c3ccccc23)NC(=O)[C@H](NC(=O)[C@H](CCCCN)NC(=O)[C@@H](N)[C@@H](C)CC)CSC[C@@H](C(=O)N[C@H]2C(=O)N3CCC[C@H]3C(=O)NCC(=O)N[C@H](C(=O)N[C@@H](C)C(=O)N[C@@H](CC(N)=O)C(=O)N/C(=C\C)C(=O)NCC(=O)N[C@@H]3CSC[C@@H]4NC(=O)[C@H](Cc5ccc(O)cc5)NC(=O)[C@@H](CS/C=C\NC4=O)NC(=O)[C@H](CC(N)=O)NC(=O)[C@H](Cc4ccccc4)NC3=O)CS[C@H]2C)NC(=O)[C@H](CC(C)C)NC1=O [OG706]	0.5 (≈ 0.228 µM)	1 (≈ 0.457 µM)	0.5 (≈ 0.228 µM)	0.125 to 1	0.125	1	0.5	0.25	0.25	0.5	0.5	0.5	-11.3% and -11%	-1.15	-23%	-8.05	-20%	-6.64	-50.1% and -50%	-21.46	solubility [2]: 18 to 24 mg/mL (≈ 8220 to 11000 µM)
C=C1NC(=O)[C@H](Cc2c[nH]c3ccccc23)NC(=O)[C@H](NC(=O)[C@H](CCCCN)NC(=O)[C@@H](N)CC(C)C)CSC[C@@H](C(=O)N[C@H]2C(=O)N3CCC[C@H]3C(=O)NCC(=O)N[C@H](C(=O)N[C@@H](C)C(=O)N[C@@H](CC(N)=O)C(=O)N/C(=C\C)C(=O)NCC(=O)N[C@@H]3CSC[C@@H]4NC(=O)[C@H](Cc5ccc(O)cc5)NC(=O)[C@@H](CS/C=C\NC4=O)NC(=O)[C@H](CC(N)=O)NC(=O)[C@H](Cc4ccccc4)NC3=O)CS[C@H]2C)NC(=O)[C@H](CC(C)C)NC1=O [OG712]	0.25 (≈ 0.114 µM)	0.5 (≈ 0.228 µM)	0.25 (≈ 0.114 µM)	0.125 to 0.5	0.125	0.5	0.5	0.25	0.25	0.25	0.25	0.5	-4.6% and -5%	-0.21	-8.7% and -9%	-3.01	-9.3% and -9%	-4.63	-45.2% and -45%	–	solubility [2]: 12 mg/mL (≈ 5480 µM)
C=C1NC(=O)[C@H](Cc2c[nH]c3ccccc23)NC(=O)[C@H](NC(=O)[C@H](CCCCN)NC(=O)[C@@H](N)C(C)C)CSC[C@@H](C(=O)N[C@H]2C(=O)N3CCC[C@H]3C(=O)NCC(=O)N[C@H](C(=O)N[C@@H](C)C(=O)N[C@@H](CC(N)=O)C(=O)N/C(=C\C)C(=O)NCC(=O)N[C@@H]3CSC[C@@H]4NC(=O)[C@H](Cc5ccc(O)cc5)NC(=O)[C@@H](CS/C=C\NC4=O)NC(=O)[C@H](CC(N)=O)NC(=O)[C@H](Cc4ccccc4)NC3=O)CS[C@H]2C)NC(=O)[C@H](CC(C)C)NC1=O [OG716]	0.25 (≈ 0.115 µM)	0.5 (≈ 0.23 µM)	0.5 (≈ 0.23 µM)	0.25 to 0.5	0.25	0.5	0.5	0.25	0.25	0.25	0.5	0.5	-7.4% and -7%	-0.31	-16.9% and -17%	-3.67	-14.8% and -15%	-5.20	-47%	-19.77	solubility [2]: 12 to 18 mg/mL (≈ 5520 to 8280 µM)

— article PMC5997364, “OG716: Designing a fit-for-purpose lantibiotic for the treatment of Clostridium difficile infections” (PLoS ONE, 2018)
